In patent US12534452B2, “N-(1H-imidazol-2-yl)benzamide compound and pharmaceutical composition comprising the same as active ingredient” (KAINOS MEDICINE, INC., priority 2019, dated 2026):

Target: IRAK4 (Homo sapiens (Human), UniProt Q9NWZ3)
Assay: In vitro IRAK4 phosphorylation activity assay
Format: biochemical
Settings: [γ-33P]-ATP, myelin basic protein substrate, 40 minutes at room temperature; categories
Experimental: In vitro IRAK4 analysis was performed using N-(1H-imidazol-2-yl)benzamide compounds according to the present invention. All compounds were prepared by dissolving in DMSO. N-(1H-imidazol-2-yl)benzamide compound according to the present invention and other elements for the reaction were added to an assay well. In the standard Kinase Profiler service the preincubation step between the N-(1H-imidazol-2-yl)benzamide compound and kinase was not performed before the reaction.
To the positive control well, all reactants except for the N-(1H-imidazol-2-yl)benzamide compound according to the present invention were added, and DMSO was added to remove the solvent effect. A known control inhibitor having the following structure was added to the blank wells to inhibit kinase activity and establish a base-line.
IRAK4 was incubated with 8 mM MOPS pH 7.0, 0.2 mM EDTA, 0.33 mg/mL myelin basic protein, 10 mM magnesium acetate and [γ-33P]-ATP (specific activity approx. 500 cpm/pmol, concentration as required). The reaction was initiated by the addition of the MgATP mix. After incubation for 40 minutes at room temperature, the reaction was stopped by the addition of 3% phosphoric acid solution. 10 μL of the reaction was then spotted onto a P30 filtermat and washed three times for 5 minutes in 75 mM phosphoric acid and once in methanol prior to drying and scintillation counting.
The results are shown in Table 26 below, where the phosphorylation activity of IC50 values for IRAK4 is shown in categories (A: <50 nM, B: 50-100 nM, C: >100 nM).

Chain of IRAK4 (Q9NWZ3 whole entry): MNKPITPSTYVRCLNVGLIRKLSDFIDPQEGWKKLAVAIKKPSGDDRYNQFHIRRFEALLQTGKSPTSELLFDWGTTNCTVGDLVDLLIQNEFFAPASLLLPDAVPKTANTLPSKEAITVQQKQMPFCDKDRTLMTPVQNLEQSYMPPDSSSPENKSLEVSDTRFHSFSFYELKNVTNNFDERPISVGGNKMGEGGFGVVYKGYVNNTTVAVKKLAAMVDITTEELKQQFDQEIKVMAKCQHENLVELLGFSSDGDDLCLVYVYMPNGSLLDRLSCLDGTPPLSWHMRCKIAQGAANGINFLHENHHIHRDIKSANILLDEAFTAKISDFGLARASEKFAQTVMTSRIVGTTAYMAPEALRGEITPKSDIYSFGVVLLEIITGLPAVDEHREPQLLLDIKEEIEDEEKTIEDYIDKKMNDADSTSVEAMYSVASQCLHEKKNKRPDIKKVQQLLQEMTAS

Compound | IC50
Nc1ccc(-c2cccc(C(=O)Nc3nc(CCCCCCN4CCCCC4)cn3-c3ccccc3)c2)cn1 [Example 275, 3-(6-aminopyridin-3-yl)-N-(1-phenyl-4-(6-(piperidin-1-yl)hexyl)-1H-imidazol-2-yl)benzamide] | < 50 nM
Cn1cc(-c2cccc(C(=O)Nc3nc(CCCC(=O)NN4CCCC4)cn3-c3ccccc3)c2)cn1 [Example 151, 3-(1-methyl-1H-pyrazol-4-yl)-N-(4-(4-oxo-4-(pyrrolidin-1-ylamino)butyl)-1-phenyl-1H-imidazol-2-yl)benzamide] | < 50 nM
CN(C)C1CCN(C(=O)CCCc2cn(-c3ccccc3)c(NC(=O)c3cccc(-c4ccc5scnc5c4)c3)n2)CC1 [Example 282, 3-(benzo[d]thiazol-5-yl)-N-(4-(4-(4-(dimethylamino)piperidin-1-yl)-4-oxobutyl)-1-phenyl-1H-imidazol-2-yl)benzamide] | > 100 nM
Cn1cc(-c2cccc(C(=O)Nc3nc(CCCC(=O)NCCCO)cn3-c3ccccc3)c2)cn1 [Example 165, N-(4-(4-((3-hydroxypropyl)amino)-4-oxobutyl)-1-phenyl-1H-imidazol-2-yl)-3-(1-methyl-1H-pyrazol-4-yl)benzamide] | < 50 nM
Cn1cc(-c2cccc(C(=O)Nc3nc(CCCC(=O)Nc4ccncc4)cn3-c3ccccc3)c2)cn1 [Example 150, 3-(1-methyl-1H-pyrazol-4-yl)-N-(4-(4-oxo-4-(pyridin-4-ylamino)butyl)-1-phenyl-1H-imidazol-2-yl)benzamide] | < 50 nM
Cn1cc(-c2cccc(C(=O)Nc3nc(CCCC(=O)Nc4ccc5c(cnn5C)c4)cn3-c3ccccc3)c2)cn1 [Example 191, N-(4-(4-((1-methyl-1H-indazol-5-yl)amino)-4-oxobutyl)-1-phenyl-1H-imidazol-2-yl)-3-(1-methyl-1H-pyrazol-4-yl)benzamide] | < 50 nM
C[Si](C)(C)CCOCn1cc(-c2cccc(C(=O)Nc3nc(CCCC(=O)NC4CC4)cn3-c3ccccc3)c2)cn1 [Example 67, N-(4-(4-(cyclopropylamino)-4-oxobutyl)-1-phenyl-1H-imidazol-2-yl)-3-(1-((2-(trimethylsilyl)ethoxy)methyl)-1H-pyrazol-4-yl)benzamide] | > 100 nM
O=C(Nc1nc(CCCCCCN2CCCCC2=O)cn1-c1ccccc1)c1cccc(-c2ccc3[nH]ncc3c2)c1 [Example 260, 3-(1H-indazol-5-yl)-N-(4-(6-(2-oxopiperidin-1-yl)hexyl)-1-phenyl-1H-imidazol-2-yl)benzamide] | < 50 nM
CN1CCN(N(C)C(=O)CCCc2cn(-c3ccccc3)c(NC(=O)c3cccc(-c4cnn(C)c4)c3)n2)CC1 [Example 218, N-(4-(4-(methyl(4-methylpiperazin-1-yl)amino)-4-oxobutyl)-1-phenyl-1H-imidazol-2-yl)-3-(1-methyl-1H-pyrazol-4-yl)benzamide] | < 50 nM
O=C(Nc1nc(CCCC(=O)N2CCCCC2)cn1-c1ccccc1)c1cccc(-c2cn[nH]c2F)c1 [Example 231, 3-(5-fluoro-1H-pyrazol-4-yl)-N-(4-(4-oxo-4-(piperidin-1-yl)butyl)-1-phenyl-1H-imidazol-2-yl)benzamide] | < 50 nM
Cn1ncc(-c2cccc(C(=O)Nc3nc(CCCC(=O)NC4CC4)cn3-c3ccccc3)c2)c1F [Example 232, N-(4-(4-(cyclopropylamino)-4-oxobutyl)-1-phenyl-1H-imidazol-2-yl)-3-(5-fluoro-1-methyl-1H-pyrazol-4-yl)benzamide] | 50 to 100 nM

Other lines, results leading:

IC50 | Compound
< 50 nM | O=C(Nc1nc(CCCCCO)cn1-c1ccccc1)c1cccc(-c2cn[nH]c2)c1 [Example 116, N-(4-(5-hydroxypentyl)-1-phenyl-1H-imidazol-2-yl)-3-(1H-pyrazol-4-yl)benzamide]
< 50 nM | COC[C@H]1CCCN1NC(=O)CCCCCc1cn(-c2ccccc2)c(NC(=O)c2cccc(-c3cn[nH]c3)c2)n1 [Example 99, (R)—N-(4-(6-((2-(methoxymethyl)pyrrolidin-1-yl)amino)-6-oxohexyl)-1-phenyl-1H-imidazol-2-yl)-3-(1H-pyrazol-4-yl)benzamide]
< 50 nM | COC[C@H]1CCCN1NC(=O)CCCc1cn(-c2ccccc2)c(NC(=O)c2cccc(-c3cn[nH]c3)c2)n1 [Example 54, (R)—N-(4-(4-((2-(methoxymethyl)pyrrolidin-1-yl)amino)-4-oxobutyl)-1-phenyl-1H-imidazol-2-yl)-3-(1H-pyrazol-4-yl)benzamide]
> 100 nM | O=C(O)Cc1cn(-c2ccccc2)c(NC(=O)c2cccc(-c3cn[nH]c3)c2)n1 [Example 43, 2-(2-(3-(1H-pyrazol-4-yl)benzamido)-1-phenyl-1H-imidazol-4-yl)acetic acid]
< 50 nM | Cn1cc(-c2cccc(C(=O)Nc3nc(CCCC(N)=O)cn3-c3ccccc3)c2)cn1 [Example 189, N-(4-(4-amino-4-oxobutyl)-1-phenyl-1H-imidazol-2-yl)-3-(1-methyl-1H-pyrazol-4-yl)benzamide]
< 50 nM | O=C(Nc1nc(CCCCC(=O)N2CCCCC2)cn1-c1ccccc1)c1cccc(-c2cn[nH]c2)c1 [Example 79, N-(4-(5-oxo-5-(piperidin-1-yl)pentyl)-1-phenyl-1H-imidazol-2-yl)-3-(1H-pyrazol-4-yl)benzamide]
< 50 nM | Cn1cc(-c2cccc(C(=O)Nc3nc(CCCCCC(=O)NC4CC4)cn3-c3ccccc3)c2)cn1 [Example 199, N-(4-(6-(cyclopropylamino)-6-oxohexyl)-1-phenyl-1H-imidazol-2-yl)-3-(1-methyl-1H-pyrazol-4-yl)benzamide]
< 50 nM | Cn1cc(-c2cccc(C(=O)Nc3nc(CCCCC(=O)N4CCC[C@H](C(=O)O)C4)cn3-c3ccccc3)c2)cn1 [Example 208, (S)-1-(5-(2-(3-(1-methyl-1H-pyrazol-4-yl)benzamido)-1-phenyl-1H-imidazol-4-yl)pentanoyl)piperidine-3-carboxylic acid]
< 50 nM | O=C(Nc1nc(CCCN2CCSCC2)cn1-c1ccccc1)c1cccc(-c2cn[nH]c2)c1 [Example 110, N-(1-phenyl-4-(3-thiomorpholinopropyl)-1H-imidazol-2-yl)-3-(1H-pyrazol-4-yl)benzamide]
< 50 nM | O=C(CCCCc1cn(-c2ccccc2)c(NC(=O)c2cccc(-c3cn[nH]c3)c2)n1)NC1CCCCC1 [Example 89, N-(4-(5-(cyclohexylamino)-5-oxopentyl)-1-phenyl-1H-imidazol-2-yl)-3-(1H-pyrazol-4-yl)benzamide]
50 to 100 nM | Cn1cc(-c2cccc(C(=O)Nc3nc(CCCC(=O)O)cn3-c3ccccc3)c2)cn1 [Example 140, 4-(2-(3-(1-methyl-1H-pyrazol-4-yl)benzamido)-1-phenyl-1H-imidazol-4-yl)butanoic acid]
< 50 nM | C[C@@H]1CCCN1C(=O)CCc1cn(-c2ccccc2)c(NC(=O)c2cccc(-c3cn[nH]c3)c2)n1 [Example 23, (R)—N-(4-(3-(2-methylpyrrolidin-1-yl)-3-oxopropyl)-1-phenyl-1H-imidazol-2-yl)-3-(1H-pyrazol-4-yl)benzamide]
< 50 nM | O=C(Nc1nc(CCCCCCN2CCSCC2)cn1-c1ccccc1)c1cccc(-c2cn[nH]c2)c1 [Example 124, N-(1-phenyl-4-(6-thiomorpholinohexyl)-1H-imidazol-2-yl)-3-(1H-pyrazol-4-yl)benzamide]
< 50 nM | CN(C(=O)CCCc1cn(-c2ccccc2)c(NC(=O)c2cccc(-c3cn[nH]c3)c2)n1)C1CC1 [Example 71, N-(4-(4-(cyclopropyl(methyl)amino)-4-oxobutyl)-1-phenyl-1H-imidazol-2-yl)-3-(1H-pyrazol-4-yl)benzamide]
